# System: L. acidophilus NCFM
# Experiment: RNA-seq transcriptional analysis of L. acidophilus NCFM growing on plant glycosides
# Format: cell-based, Lactobacillus acidophilus
# [1] = gene LBA0282 (Hypothetical protein)
# [2] = gene LBA0327 (Replication protein)
# [3] = gene LBA0328 (Hypothetical protein)
# [4] = gene LBA0330 (Hypothetical protein)
# [5] = gene LBA0457 (Hypothetical protein)
# [6] = gene LBA0485 (Hypothetical protein)
# [7] = gene LBA0486 (Hypothetical protein)
# [8] = gene LBA0487 (Hypothetical protein.)
# [9] = gene LBA0492 (Hypothetical protein)
# [10] = gene LBA0541 (Cadmium-transporting ATPase)
# [11] = gene LBA0542 (Putative heavy-metal-transporting alpase)
# [12] = gene LBA0543 (Hypothetical protein)
# [13] = gene LBA0544 (Transcriptional regulator)
# [14] = gene LBA0555 (Myosin-crossreactive antigen)
# [15] = gene LBA0564 (HAD family hydrolase)
# [16] = gene LBA0574 (ABC multi drug exporter)
# [17] = gene LBA0575 (ABC multi drug exporter)
# [18] = gene LBA0604 (Immunity protein)
# [19] = gene LBA0605 (Putative hydrolase)
# [20] = gene LBA0608 (Hypothetical protein)
# [21] = gene LBA0631 (Hypothetical protein)
# [22] = gene LBA0649 (Myosin-crossreactive antigen)
# [23] = gene LBA0728 (Hypothetical protein LBA0728)
# [24] = gene LBA1025 (Aldo/keto reductase family oxidoreductase)
# [25] = gene LBA1026 (Aldo/keto reduetase family oxidoreductase)
# [26] = gene LBA1206 (Hypothetical protein)
# [27] = gene LBA1401 (Peroxidase (Npx))
# [28] = gene LBA1435 (Hypothetical protein)
# [29] = gene LBA1455 (Putative surface layer protein)
# [30] = gene LBA1469 (UDP-glucose 4-epimerase)
# [31] = gene LBA1656 (Hypothetical protein)
# [32] = gene LBA1675 (Hypothetical protein)
# [33] = gene LBA1676 (ATP-dependent helicase)
# [34] = gene LBA1683 (Putative magnesium-transporting atpase)
# [35] = gene LBA1704 (N-Acetylmuramic acid-6-phosphate etherase)
# [36] = gene LBA1740 (Hypothetical protein)
# [37] = gene LBA1752 (Hypothetical protein)
# [38] = gene LBA1769 (Hypothetical protein)
# [39] = gene LBA1793 (Hypothetical protein)
# [40] = gene LBA1869 (Beta-phosphoglueomutase)
# [41] = gene LBA1895 (Hypothetical protein)
# [42] = nTPM on plant glycoside relative to glucose, mid-exponential phase
smiles,measurement,setting,value
OCc1ccccc1O[C@@H]1O[C@H](CO)[C@@H](O)[C@H](O)[C@H]1O [Salicin],Log2 differential normalized TPM ratio compared to lactose,[1],0
same,Transcripts per million (rpm),[1],34.3 rpm
same,Log2 differential normalized TPM ratio compared to glucose,[2],0
same,Log2 differential normalized TPM ratio compared to lactose,[2],−0.3
same,Transcripts per million (rpm),[2],8.1 rpm
same,Log2 differential normalized TPM ratio compared to glucose,[3],−0.1
same,Log2 differential normalized TPM ratio compared to lactose,[3],0
same,Transcripts per million (rpm),[3],13.3 rpm
same,Log2 differential normalized TPM ratio compared to glucose,[4],0.4
same,Log2 differential normalized TPM ratio compared to lactose,[4],0
same,Transcripts per million (rpm),[4],27.3 rpm
same,Log2 differential normalized TPM ratio compared to glucose,[5],1.8
same,Log2 differential normalized TPM ratio compared to lactose,[5],0.8
same,Transcripts per million (rpm),[5],1746 rpm
same,Log2 differential normalized TPM ratio compared to glucose,[6],1.9
same,Log2 differential normalized TPM ratio compared to lactose,[6],−0.5
same,Transcripts per million (rpm),[6],770.3 rpm
same,Log2 differential normalized TPM ratio compared to glucose,[7],2.4
same,Log2 differential normalized TPM ratio compared to lactose,[7],−0.4
same,Transcripts per million (rpm),[7],1205 rpm
same,Log2 differential normalized TPM ratio compared to glucose,[8],1.5
same,Log2 differential normalized TPM ratio compared to lactose,[8],0.2
same,Transcripts per million (rpm),[8],96.1 rpm
same,Log2 differential normalized TPM ratio compared to glucose,[9],2
same,Log2 differential normalized TPM ratio compared to lactose,[9],−0.5
same,Transcripts per million (rpm),[9],32.8 rpm
same,Log2 differential normalized TPM ratio compared to glucose,[10],2
same,Log2 differential normalized TPM ratio compared to lactose,[10],−0.3
same,Transcripts per million (rpm),[10],143.6 rpm
same,Log2 differential normalized TPM ratio compared to glucose,[11],1.8
same,Log2 differential normalized TPM ratio compared to lactose,[11],−0.4
same,Transcripts per million (rpm),[11],311.6 rpm
same,Log2 differential normalized TPM ratio compared to glucose,[12],2
same,Log2 differential normalized TPM ratio compared to lactose,[12],−0.4
same,Transcripts per million (rpm),[12],266.3 rpm
same,Log2 differential normalized TPM ratio compared to glucose,[13],1.7
same,Log2 differential normalized TPM ratio compared to lactose,[13],−0.3
same,Transcripts per million (rpm),[13],342.8 rpm
same,Log2 differential normalized TPM ratio compared to glucose,[14],1.4
same,Log2 differential normalized TPM ratio compared to lactose,[14],−0.5
same,Transcripts per million (rpm),[14],118.8 rpm
same,Log2 differential normalized TPM ratio compared to glucose,[15],0.4
same,Log2 differential normalized TPM ratio compared to lactose,[15],−0.2
same,Transcripts per million (rpm),[15],1.4 rpm
same,Log2 differential normalized TPM ratio compared to glucose,[16],−0.7
same,Log2 differential normalized TPM ratio compared to lactose,[16],−1
same,Transcripts per million (rpm),[16],54.6 rpm
same,Log2 differential normalized TPM ratio compared to glucose,[17],−0.5
same,Log2 differential normalized TPM ratio compared to lactose,[17],−0.8
same,Transcripts per million (rpm),[17],55.6 rpm
same,Log2 differential normalized TPM ratio compared to glucose,[18],−0.1
same,Log2 differential normalized TPM ratio compared to lactose,[18],−0.6
same,Transcripts per million (rpm),[18],14.3 rpm
same,Log2 differential normalized TPM ratio compared to glucose,[19],1.2
same,Log2 differential normalized TPM ratio compared to lactose,[19],0.2
same,Transcripts per million (rpm),[19],6.3 rpm
same,Log2 differential normalized TPM ratio compared to glucose,[20],1.4
same,Log2 differential normalized TPM ratio compared to lactose,[20],0.3
same,Transcripts per million (rpm),[20],95.4 rpm
same,Log2 differential normalized TPM ratio compared to glucose,[21],2.9
same,Log2 differential normalized TPM ratio compared to lactose,[21],−0.2
same,Transcripts per million (rpm),[21],9342.6 rpm
same,Log2 differential normalized TPM ratio compared to glucose,[22],1.6
same,Log2 differential normalized TPM ratio compared to lactose,[22],0.8
same,Transcripts per million (rpm),[22],116.3 rpm
same,Log2 differential normalized TPM ratio compared to glucose,[23],4.1
same,Log2 differential normalized TPM ratio compared to lactose,[23],2.3
same,Transcripts per million (rpm),[23],43.8 rpm
same,Log2 differential normalized TPM ratio compared to lactose,gene LBA0802 (Hypothetical protein),−0.2
same,Log2 differential normalized TPM ratio compared to glucose,gene LBA0861 (Polyferredoxin),0.1
same,Log2 differential normalized TPM ratio compared to lactose,gene LBA0861 (Polyferredoxin),−0.5
same,Transcripts per million (rpm),gene LBA0861 (Polyferredoxin),196.3 rpm
same,Log2 differential normalized TPM ratio compared to glucose,gene LBA1023 (Oxidoreductase),−0.4
same,Log2 differential normalized TPM ratio compared to lactose,gene LBA1023 (Oxidoreductase),−0.7
same,Transcripts per million (rpm),gene LBA1023 (Oxidoreductase),132.8 rpm
same,Log2 differential normalized TPM ratio compared to glucose,[24],−0.4
same,Log2 differential normalized TPM ratio compared to lactose,[24],−0.5
same,Transcripts per million (rpm),[24],23.7 rpm
same,Log2 differential normalized TPM ratio compared to glucose,[25],−0.3
same,Log2 differential normalized TPM ratio compared to lactose,[25],−0.8
same,Transcripts per million (rpm),[25],26.1 rpm
same,Log2 differential normalized TPM ratio compared to glucose,gene LBA1027 (Oxidoreductase),2.2
same,Log2 differential normalized TPM ratio compared to lactose,gene LBA1027 (Oxidoreductase),0.6
same,Transcripts per million (rpm),gene LBA1027 (Oxidoreductase),2726.8 rpm
same,Log2 differential normalized TPM ratio compared to glucose,[26],1.5
same,Log2 differential normalized TPM ratio compared to lactose,[26],0.3
same,Transcripts per million (rpm),[26],391.2 rpm
same,Log2 differential normalized TPM ratio compared to glucose,[27],2.7
same,Log2 differential normalized TPM ratio compared to lactose,[27],0.6
same,Transcripts per million (rpm),[27],466.6 rpm
same,Log2 differential normalized TPM ratio compared to glucose,[28],3.6
same,Log2 differential normalized TPM ratio compared to lactose,[28],−0.2
same,Transcripts per million (rpm),[28],52.5 rpm
same,Log2 differential normalized TPM ratio compared to glucose,[29],0.1
same,Log2 differential normalized TPM ratio compared to lactose,[29],−1.6
same,Transcripts per million (rpm),[29],18.3 rpm
same,Log2 differential normalized TPM ratio compared to glucose,[30],1.4
same,Log2 differential normalized TPM ratio compared to lactose,[30],−3.6
same,Transcripts per million (rpm),[30],235.5 rpm
same,Log2 differential normalized TPM ratio compared to glucose,[31],0.9
same,Log2 differential normalized TPM ratio compared to lactose,[31],0.3
same,Transcripts per million (rpm),[31],38.2 rpm
same,Log2 differential normalized TPM ratio compared to glucose,[32],2
same,Log2 differential normalized TPM ratio compared to lactose,[32],0.5
same,Transcripts per million (rpm),[32],1669.1 rpm
same,Log2 differential normalized TPM ratio compared to glucose,[33],1.7
same,Log2 differential normalized TPM ratio compared to lactose,[33],0.5
same,Transcripts per million (rpm),[33],1070.6 rpm
same,Log2 differential normalized TPM ratio compared to glucose,[34],0.3
same,Log2 differential normalized TPM ratio compared to lactose,[34],0.5
same,Transcripts per million (rpm),[34],20.2 rpm
same,Log2 differential normalized TPM ratio compared to glucose,[35],0.7
same,Log2 differential normalized TPM ratio compared to lactose,[35],0.1
same,Transcripts per million (rpm),[35],11.6 rpm
same,Log2 differential normalized TPM ratio compared to glucose,[36],0.3
same,Log2 differential normalized TPM ratio compared to lactose,[36],−0.5
same,Transcripts per million (rpm),[36],23.1 rpm
same,Log2 differential normalized TPM ratio compared to glucose,[37],0.6
same,Log2 differential normalized TPM ratio compared to lactose,[37],−0.3
same,Transcripts per million (rpm),[37],13 rpm
same,Log2 differential normalized TPM ratio compared to glucose,[38],1.8
same,Log2 differential normalized TPM ratio compared to lactose,[38],−0.1
same,Transcripts per million (rpm),[38],5527.5 rpm
same,Log2 differential normalized TPM ratio compared to glucose,[39],1.2
same,Log2 differential normalized TPM ratio compared to lactose,[39],−1.7
same,Transcripts per million (rpm),[39],37.8 rpm
same,Log2 differential normalized TPM ratio compared to glucose,gene LBA1796 (ABC exporter),1
same,Log2 differential normalized TPM ratio compared to lactose,gene LBA1796 (ABC exporter),−1.6
same,Transcripts per million (rpm),gene LBA1796 (ABC exporter),18.3 rpm
same,Log2 differential normalized TPM ratio compared to glucose,[40],2.4
same,Log2 differential normalized TPM ratio compared to lactose,[40],−0.1
same,Transcripts per million (rpm),[40],43.1 rpm
same,Log2 differential normalized TPM ratio compared to glucose,[41],0.7
same,Log2 differential normalized TPM ratio compared to lactose,[41],0.5
same,Transcripts per million (rpm),[41],46.2 rpm
same,"Log2 Ratio vs Glc, LBA0225 Phospho-β-glucosidase (GH1)",[42],−0.1
same,"Log2 Ratio vs Glc, LBA0227 PTS EIIC",[42],0.9
same,"Log2 Ratio vs Glc, LBA0228 Transcriptional regulator",[42],0.1
same,"Log2 Ratio vs Glc, LBA0466 Phosphoenolpyruvate carboxykinase (ATP)",[42],1.3
same,"Log2 Ratio vs Glc, LBA0491 PTS EIIC",[42],1.5
same,"Log2 Ratio vs Glc, LBA0492 Hypothetical protein",[42],2
same,"Log2 Ratio vs Glc, LBA0555 Myosin-cross-reactive antigen/Fatty acid hydratase",[42],1.4
same,"Log2 Ratio vs Glc, LBA0606 PTS EIIBC",[42],2.5
same,"Log2 Ratio vs Glc, LBA0631 Hypothetical protein",[42],2.9
same,"Log2 Ratio vs Glc, LBA0724 Transcriptional regulator (antiterminator)",[42],5.3
same,"Log2 Ratio vs Glc, LBA0725 PTS EIICBA",[42],8.9
same,"Log2 Ratio vs Glc, LBA0726 Phospho-β-glucosidase (GH1)",[42],6.2
same,"Log2 Ratio vs Glc, LBA0728 Hypothetical protein",[42],4.1
same,"Log2 Ratio vs Glc, LBA0876 PTS EIIC",[42],2.4
same,"Log2 Ratio vs Glc, LBA0877 PTS EIIA",[42],1.3
same,"Log2 Ratio vs Glc, LBA1401 Peroxidase (Npx)",[42],2.7
same,"Log2 Ratio vs Glc, LBA1411 Fumarate reductase flavoprotein subunit",[42],1.4
same,"Log2 Ratio vs Glc, LBA1433 Dihydroxyacetone kinase",[42],2.7
same,"Log2 Ratio vs Glc, LBA1434 Dihydroxyacetone kinase",[42],3.3
same,"Log2 Ratio vs Glc, LBA1435 Hypothetical protein",[42],3.6
same,"Log2 Ratio vs Glc, LBA1436 Glycerol uptake facilitator protein",[42],3.8
same,"Log2 Ratio vs Glc, LBA1632 NAD-dependent aldehyde dehydrogenase",[42],2
same,"Log2 Ratio vs Glc, LBA1684 PTS EIIA",[42],2.6
same,"Log2 Ratio vs Glc, LBA1689 Maltose-6′-phosphate glucosidase (GH4)",[42],3.7
same,"Log2 Ratio vs Glc, LBA1701 Melibiose operon regulatory protein",[42],1
same,"Log2 Ratio vs Glc, LBA1709 Mucus binding protein precursor",[42],0.5
same,"Log2 Ratio vs Glc, LBA1797 Hypothetical protein",[42],1.3
same,"Log2 Ratio vs Glc, LBA1812 α-Glucosidase II (GH31)",[42],2.2
same,"Log2 Ratio vs Glc, LBA1869 β-Phosphoglucomutase",[42],2.4
same,"Log2 Ratio vs Glc, LBA1871 Neopullulanase (GH13)",[42],0.9
same,"Log2 Ratio vs Glc, LBA1873 Acetate kinase",[42],1.2
same,"Log2 Ratio vs Glc, LBA1974 Pyruvate oxidase",[42],1.8
